# Assay results taken from PMC10932281, “A Combination of β-Aescin and Newly Synthesized Alkylamidobetaines as Modern Components Eradicating the Biofilms of Multidrug-Resistant Clinical Strains of Candida glabrata” (International Journal of Molecular Sciences, 2024).
# Legend:
# Type in all cases: cell-based, Candida glabrata
# C. glabrata ATCC 90030 [1] = assay: MIC90/MFC, EUCAST broth microdilution; details: Nakaseomyces glabratus, ATCC90030, ATCC 90030; for MFC: read-out: MFC; for MIC90: read-out: MIC90
# [2] = test system: C. glabrata 2586 clinical strain; assay: MIC90/MFC, EUCAST broth microdilution; details: Nakaseomyces glabratus; for MFC: read-out: MFC; for MIC90: read-out: MIC90
# [3] = test system: C. glabrata 2853 clinical strain; assay: MIC90/MFC, EUCAST broth microdilution; details: Nakaseomyces glabratus; for MFC: read-out: MFC; for MIC90: read-out: MIC90
# C. glabrata ATCC 90030 [4] = assay: FICI checkerboard, β-aescin with antifungal drugs; details: for FICI: combination with β-aescin
# C. glabrata 2586 [5] = assay: FICI checkerboard, β-aescin with antifungal drugs; details: for FICI: combination with β-aescin
# C. glabrata 2853 [6] = assay: FICI checkerboard, β-aescin with antifungal drugs; details: for FICI: combination with β-aescin
# C. glabrata ATCC 90030 [7] = assay: Interaction of AABs (3 µM) with antifungal agents, modified checkerboard; details: for Multiplicity factor (MF) with C9: C9 3 µM, |MF| = MIC90 alone/MIC90 with AAB; for MIC90 of antimycotic combined with C9: C9 at constant 3 µM; for MIC90 of antimycotic combined with C9 / MIC90 of antimycotic combined with C11 / MIC90 of antimycotic combined with C13 / MIC90 of antimycotic combined with C15: dilutions in µg/mL; for Multiplicity factor (MF) with C11: C11 3 µM; for MIC90 of antimycotic combined with C11: C11 at constant 3 µM; for Multiplicity factor (MF) with C13: C13 3 µM; for MIC90 of antimycotic combined with C13: C13 at constant 3 µM; for Multiplicity factor (MF) with C15: C15 3 µM; for MIC90 of antimycotic combined with C15: C15 at constant 3 µM
# C. glabrata 2586 [8] = assay: as above; details: for Multiplicity factor (MF) with C9: C9 3 µM; for MIC90 of antimycotic combined with C9: C9 at constant 3 µM; for MIC90 of antimycotic combined with C9 / MIC90 of antimycotic combined with C11 / MIC90 of antimycotic combined with C13 / MIC90 of antimycotic combined with C15: dilutions in µg/mL; for Multiplicity factor (MF) with C11: C11 3 µM; for MIC90 of antimycotic combined with C11: C11 at constant 3 µM; for Multiplicity factor (MF) with C13: C13 3 µM; for MIC90 of antimycotic combined with C13: C13 at constant 3 µM; for Multiplicity factor (MF) with C15: C15 3 µM; for MIC90 of antimycotic combined with C15: C15 at constant 3 µM
# C. glabrata 2853 [9] = assay: as above; details: for Multiplicity factor (MF) with C9: C9 3 µM; for MIC90 of antimycotic combined with C9: C9 at constant 3 µM; for MIC90 of antimycotic combined with C9 / MIC90 of antimycotic combined with C11 / MIC90 of antimycotic combined with C13 / MIC90 of antimycotic combined with C15: dilutions in µg/mL; for Multiplicity factor (MF) with C11: C11 3 µM; for MIC90 of antimycotic combined with C11: C11 at constant 3 µM; for Multiplicity factor (MF) with C13: C13 3 µM; for MIC90 of antimycotic combined with C13: C13 at constant 3 µM; for Multiplicity factor (MF) with C15: C15 3 µM; for MIC90 of antimycotic combined with C15: C15 at constant 3 µM
# [10] = test system: C. glabrata strains (ATCC 90030, 2586, 2853); assay: Interaction of AABs with antifungal agents, statements for all tested strains together; details: for MF with AABs: all of the tested C. glabrata strains, AABs 3 µM
# [11] = test system: C. glabrata strains (ATCC 90030, 2586, 2853); assay: MIC, statements for all tested strains together; details: Nakaseomyces glabratus, ATCC90030
SMILES,MFC (C. glabrata ATCC 90030 [1]),MIC90 (C. glabrata ATCC 90030 [1]),MFC [2],MIC90 [2],MFC [3],MIC90 [3],FICI (C. glabrata ATCC 90030 [4]),FICI (C. glabrata 2853 [6]),Multiplicity factor (MF) with C9 (C. glabrata ATCC 90030 [7]),MIC90 of antimycotic combined with C9 (C. glabrata ATCC 90030 [7]),Multiplicity factor (MF) with C11 (C. glabrata ATCC 90030 [7]),MIC90 of antimycotic combined with C11 (C. glabrata ATCC 90030 [7]),Multiplicity factor (MF) with C13 (C. glabrata ATCC 90030 [7]),MIC90 of antimycotic combined with C13 (C. glabrata ATCC 90030 [7]),Multiplicity factor (MF) with C15 (C. glabrata ATCC 90030 [7]),Multiplicity factor (MF) with C11 (C. glabrata 2586 [8]),MIC90 of antimycotic combined with C11 (C. glabrata 2586 [8]),Multiplicity factor (MF) with C13 (C. glabrata 2586 [8]),MIC90 of antimycotic combined with C13 (C. glabrata 2586 [8]),Multiplicity factor (MF) with C15 (C. glabrata 2586 [8]),also measured
Nc1nc(=O)[nH]cc1F [5-Fluorocytosine],1020 µg/mL,512 µg/mL,1020 µg/mL,512 µg/mL,512 µg/mL,256 µg/mL,1.5,1.5,1,512,1,512,1,512,1,1,512,1,512,1,FICI (C. glabrata 2586 [5]): 1.5; MIC90 of antimycotic combined with C15 (C. glabrata ATCC 90030 [7]): 512; Multiplicity factor (MF) with C9 (C. glabrata 2586 [8]): 1; MIC90 of antimycotic combined with C9 (C. glabrata 2586 [8]): 512; MIC90 of antimycotic combined with C15 (C. glabrata 2586 [8]): 512; Multiplicity factor (MF) with C9 (C. glabrata 2853 [9]): 1; MIC90 of antimycotic combined with C9 (C. glabrata 2853 [9]): 256; Multiplicity factor (MF) with C11 (C. glabrata 2853 [9]): 1; MIC90 of antimycotic combined with C11 (C. glabrata 2853 [9]): 256; Multiplicity factor (MF) with C13 (C. glabrata 2853 [9]): 1; MIC90 of antimycotic combined with C13 (C. glabrata 2853 [9]): 256; Multiplicity factor (MF) with C15 (C. glabrata 2853 [9]): 1; MIC90 of antimycotic combined with C15 (C. glabrata 2853 [9]): 256; MF with AABs [10]: 1
C[C@@H]1[C@H](O)[C@@H](C)/C=C/C=C/C=C/C=C/C=C/C=C/C=C/[C@H](O[C@@H]2O[C@H](C)[C@@H](O)[C@H](N)[C@@H]2O)C[C@@H]2O[C@](O)(C[C@@H](O)C[C@@H](O)[C@H](O)CC[C@@H](O)C[C@@H](O)CC(=O)O[C@H]1C)C[C@H](O)[C@H]2C(=O)O [Amphotericin B],0.5 µg/mL,0.25 µg/mL,1 µg/mL,0.25 µg/mL,0.5 µg/mL,0.25 µg/mL,1.5,2.5,1,0.25,2,0.12,2,0.12,4,2,0.12,2,0.12,4,"MIC [11]: 0.25 µg/mL; Type of interaction with β-AE (by FICI) (C. glabrata 2586 [5]): additive; FICI (C. glabrata 2586 [5]): 1; FICI (C. glabrata 2586 [5]; listed as amphotericin B): 1.0; MIC90 of antimycotic combined with C15 (C. glabrata ATCC 90030 [7]): 0.06; Multiplicity factor (MF) with C9 (C. glabrata 2586 [8]): 2; MIC90 of antimycotic combined with C9 (C. glabrata 2586 [8]): 0.12; MIC90 of antimycotic combined with C15 (C. glabrata 2586 [8]): 0.06; Multiplicity factor (MF) with C9 (C. glabrata 2853 [9]): 1; MIC90 of antimycotic combined with C9 (C. glabrata 2853 [9]): 0.25; Multiplicity factor (MF) with C11 (C. glabrata 2853 [9]): 2; MIC90 of antimycotic combined with C11 (C. glabrata 2853 [9]): 0.12; Multiplicity factor (MF) with C13 (C. glabrata 2853 [9]): 2; MIC90 of antimycotic combined with C13 (C. glabrata 2853 [9]): 0.12; Multiplicity factor (MF) with C15 (C. glabrata 2853 [9]): 4; MIC90 of antimycotic combined with C15 (C. glabrata 2853 [9]): 0.06; Fold increase of activity with C11 ([10]; all the tested strains, C11 3 µM): 2 fold; Fold increase of activity with C13 ([10]; all the tested strains, C13 3 µM): 2 fold; Fold increase of activity with C15 ([10]; all the tested strains, C15 3 µM): 4 fold"
CC[C@H](C)C[C@H](C)CCCCCCCCC(=O)N[C@H]1C[C@@H](O)[C@@H](NCCN)NC(=O)[C@@H]2[C@@H](O)CCN2C(=O)[C@H]([C@H](O)CCN)NC(=O)[C@H]([C@H](O)[C@@H](O)c2ccc(O)cc2)NC(=O)[C@@H]2C[C@@H](O)CN2C(=O)[C@H]([C@@H](C)O)NC1=O [Caspofungin],0.06 µg/mL,0.06 µg/mL,0.06 µg/mL,0.03 µg/mL,0.06 µg/mL,0.03 µg/mL,0.75,0.75,1,0.06,1,0.06,1,0.06,,,,,,,Type of interaction with β-AE (by FICI) (C. glabrata ATCC 90030 [4]): additive; Type of interaction with β-AE (by FICI) (C. glabrata 2586 [5]): additive; Type of interaction with β-AE (by FICI) (C. glabrata 2853 [6]): additive; MF with AABs [10]: 1
CC[C@@H]([C@H](C)O)n1ncn(-c2ccc(N3CCN(c4ccc(OC[C@@H]5CO[C@@](Cn6cncn6)(c6ccc(F)cc6F)C5)cc4)CC3)cc2)c1=O [Posaconazole],1020 µg/mL,256 µg/mL,1020 µg/mL,512 µg/mL,256 µg/mL,1 µg/mL,1,0.562,two-fold,,8,32,8,32,two-fold,2,256,2,256,1,Type of interaction with β-AE (by FICI) (C. glabrata ATCC 90030 [4]): additive; FICI (C. glabrata ATCC 90030 [4]; listed as posaconazole): 1.0; FICI (C. glabrata 2586 [5]): 1.002; Type of interaction with β-AE (by FICI) (C. glabrata 2853 [6]): additive; Multiplicity factor (MF) with C9 (C. glabrata 2586 [8]): 1; Multiplicity factor (MF) with C9 (C. glabrata 2586 [8]; listed as posaconazole): not observed; Multiplicity factor (MF) with C15 (C. glabrata 2586 [8]; listed as posaconazole): not observed; Multiplicity factor (MF) with C9 (C. glabrata 2853 [9]): 8 (8); Multiplicity factor (MF) with C9 (C. glabrata 2853 [9]; listed as posaconazole): 8; MIC90 of antimycotic combined with C9 (C. glabrata 2853 [9]): 8 (8); Multiplicity factor (MF) with C11 (C. glabrata 2853 [9]): 4 (4); Multiplicity factor (MF) with C11 (C. glabrata 2853 [9]; listed as posaconazole): 4; MIC90 of antimycotic combined with C11 (C. glabrata 2853 [9]): 4 (4); Multiplicity factor (MF) with C13 (C. glabrata 2853 [9]): 4 (4); Multiplicity factor (MF) with C13 (C. glabrata 2853 [9]; listed as posaconazole): 4; MIC90 of antimycotic combined with C13 (C. glabrata 2853 [9]): 4 (4); Multiplicity factor (MF) with C15 (C. glabrata 2853 [9]): 256 (256); Multiplicity factor (MF) with C15 (C. glabrata 2853 [9]; listed as posaconazole): 256; MIC90 of antimycotic combined with C15 (C. glabrata 2853 [9]): 256 (256)
C[C@@H](c1ncncc1F)[C@](O)(Cn1cncn1)c1ccc(F)cc1F [Voriconazole],1020 µg/mL,512 µg/mL,1020 µg/mL,512 µg/mL,512 µg/mL,2 µg/mL,1,2.5,64,8,64,8,64,8,64,64,8,64,8,64,Type of interaction with β-AE (by FICI) (C. glabrata ATCC 90030 [4]): additive; FICI (C. glabrata ATCC 90030 [4]; listed as voriconazole): 1.0; Type of interaction with β-AE (by FICI) (C. glabrata 2586 [5]): additive; MIC90 of antimycotic combined with C15 (C. glabrata ATCC 90030 [7]): 8; MIC90 of antimycotic combined with C9 (C. glabrata 2586 [8]): 64; MIC90 of antimycotic combined with C15 (C. glabrata 2586 [8]): 8; Multiplicity factor (MF) with C9 (C. glabrata 2853 [9]): 1; Multiplicity factor (MF) with C9 (C. glabrata 2853 [9]; listed as voriconazole): did not alter the level of activity; MIC90 of antimycotic combined with C9 (C. glabrata 2853 [9]): 2; Multiplicity factor (MF) with C11 (C. glabrata 2853 [9]): 2; Multiplicity factor (MF) with C11 (C. glabrata 2853 [9]; listed as voriconazole): twice; MIC90 of antimycotic combined with C11 (C. glabrata 2853 [9]): 1; Multiplicity factor (MF) with C13 (C. glabrata 2853 [9]): 2; Multiplicity factor (MF) with C13 (C. glabrata 2853 [9]; listed as voriconazole): twice; MIC90 of antimycotic combined with C13 (C. glabrata 2853 [9]): 1; Multiplicity factor (MF) with C15 (C. glabrata 2853 [9]): 128; MIC90 of antimycotic combined with C15 (C. glabrata 2853 [9]): 256
